Laboratory results: ChEMBL document CHEMBL5715954, “Silencing c-Myc translation as a therapeutic strategy through targeting PI3Kδ and CK1ε in hematological malignancies” (Blood, 2017)

Legend:
Design in all cases: scale not given: the % may be the effect or the level left
[1] = molecular target: Cyclin-dependent kinase 4/cyclin D1 (Homo sapiens) (UniProt P11802+P24385); assay: Inhibition of human CDK4/cyclin D1 assessed as enzyme activity at 1 uM using RB Protein as substrate preincubated for 20 mins followed by [gamma-33P]-ATP addition and measured after 120 mins by radiometric Hot-SpotSM Kinase assay relative to control; type: protein-complex assay
[2] = molecular target: Leucine-rich repeat serine/threonine-protein kinase 2 (Homo sapiens) (UniProt Q5S007); assay: Inhibition of human LRRK2 assessed as enzyme activity at 1 uM using RLGRDKYKTLRQIRQ as substrate preincubated for 20 mins followed by [gamma-33P]-ATP addition and measured after 120 mins by radiometric Hot-SpotSM Kinase assay relative to control
Chain of Leucine-rich repeat serine/threonine-protein kinase 2 (Homo sapiens) (Q5S007 whole entry): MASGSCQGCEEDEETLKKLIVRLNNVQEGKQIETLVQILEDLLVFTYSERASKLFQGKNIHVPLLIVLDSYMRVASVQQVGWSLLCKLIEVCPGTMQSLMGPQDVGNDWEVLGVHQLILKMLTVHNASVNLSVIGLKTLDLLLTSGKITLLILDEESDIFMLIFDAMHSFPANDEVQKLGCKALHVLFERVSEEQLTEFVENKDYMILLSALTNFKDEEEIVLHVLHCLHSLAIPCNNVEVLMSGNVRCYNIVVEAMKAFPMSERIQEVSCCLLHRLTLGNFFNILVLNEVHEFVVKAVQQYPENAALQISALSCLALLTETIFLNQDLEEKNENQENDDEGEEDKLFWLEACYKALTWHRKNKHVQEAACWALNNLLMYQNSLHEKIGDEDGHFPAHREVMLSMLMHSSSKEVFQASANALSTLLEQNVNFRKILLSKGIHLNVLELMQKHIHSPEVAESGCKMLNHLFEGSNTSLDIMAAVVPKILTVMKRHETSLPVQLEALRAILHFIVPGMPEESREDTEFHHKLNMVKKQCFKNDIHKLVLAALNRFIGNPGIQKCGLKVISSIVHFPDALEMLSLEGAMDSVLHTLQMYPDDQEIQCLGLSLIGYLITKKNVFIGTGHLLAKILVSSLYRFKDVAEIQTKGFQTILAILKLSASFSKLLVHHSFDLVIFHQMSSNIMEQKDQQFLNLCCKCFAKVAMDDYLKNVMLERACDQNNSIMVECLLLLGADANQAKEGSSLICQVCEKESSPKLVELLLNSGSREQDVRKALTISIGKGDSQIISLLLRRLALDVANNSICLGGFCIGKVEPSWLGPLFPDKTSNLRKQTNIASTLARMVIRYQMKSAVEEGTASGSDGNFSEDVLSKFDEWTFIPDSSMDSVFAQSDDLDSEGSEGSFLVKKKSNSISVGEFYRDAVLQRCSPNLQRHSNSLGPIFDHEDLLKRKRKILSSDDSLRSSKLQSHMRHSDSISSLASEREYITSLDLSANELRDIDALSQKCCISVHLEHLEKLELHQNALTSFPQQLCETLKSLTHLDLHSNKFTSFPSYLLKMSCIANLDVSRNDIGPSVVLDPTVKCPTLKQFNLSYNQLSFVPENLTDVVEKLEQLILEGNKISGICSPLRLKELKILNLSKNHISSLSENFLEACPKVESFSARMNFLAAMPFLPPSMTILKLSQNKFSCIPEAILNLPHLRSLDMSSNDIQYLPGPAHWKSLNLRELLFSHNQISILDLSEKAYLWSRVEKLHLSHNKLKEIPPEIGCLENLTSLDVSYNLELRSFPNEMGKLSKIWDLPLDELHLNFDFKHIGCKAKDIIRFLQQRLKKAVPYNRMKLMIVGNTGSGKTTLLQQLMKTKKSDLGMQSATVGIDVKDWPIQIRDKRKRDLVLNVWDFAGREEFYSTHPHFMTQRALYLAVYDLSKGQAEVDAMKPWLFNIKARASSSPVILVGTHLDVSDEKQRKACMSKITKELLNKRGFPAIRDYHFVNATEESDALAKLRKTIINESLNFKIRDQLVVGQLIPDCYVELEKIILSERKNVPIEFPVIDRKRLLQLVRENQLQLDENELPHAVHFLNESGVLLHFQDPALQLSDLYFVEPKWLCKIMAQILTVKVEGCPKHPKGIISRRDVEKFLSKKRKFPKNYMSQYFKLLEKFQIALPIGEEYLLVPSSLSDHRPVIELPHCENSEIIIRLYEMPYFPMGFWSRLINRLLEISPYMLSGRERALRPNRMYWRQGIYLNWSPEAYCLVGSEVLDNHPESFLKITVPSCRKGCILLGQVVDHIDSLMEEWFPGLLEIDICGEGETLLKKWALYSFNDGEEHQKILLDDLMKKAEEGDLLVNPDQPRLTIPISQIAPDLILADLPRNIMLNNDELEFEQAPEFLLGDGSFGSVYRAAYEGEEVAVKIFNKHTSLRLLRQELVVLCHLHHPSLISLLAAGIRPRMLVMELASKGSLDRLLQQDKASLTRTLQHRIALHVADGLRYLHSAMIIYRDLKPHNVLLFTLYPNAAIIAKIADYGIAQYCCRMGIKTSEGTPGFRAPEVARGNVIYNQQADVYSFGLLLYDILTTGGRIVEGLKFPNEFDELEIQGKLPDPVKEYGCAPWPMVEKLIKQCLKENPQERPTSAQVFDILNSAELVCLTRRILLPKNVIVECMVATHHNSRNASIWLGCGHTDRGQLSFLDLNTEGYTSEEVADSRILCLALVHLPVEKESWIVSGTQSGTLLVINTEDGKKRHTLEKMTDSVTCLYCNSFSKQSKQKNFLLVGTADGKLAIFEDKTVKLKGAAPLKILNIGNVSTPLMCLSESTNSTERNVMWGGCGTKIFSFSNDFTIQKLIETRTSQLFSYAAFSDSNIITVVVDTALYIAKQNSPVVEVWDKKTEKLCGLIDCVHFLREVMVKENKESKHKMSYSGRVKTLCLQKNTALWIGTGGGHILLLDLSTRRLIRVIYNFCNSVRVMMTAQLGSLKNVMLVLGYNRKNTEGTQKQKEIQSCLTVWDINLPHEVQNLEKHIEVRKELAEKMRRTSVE

[3] = molecular target: Macrophage-stimulating protein receptor (Homo sapiens) (UniProt Q04912); assay: Inhibition of human RON assessed as enzyme activity at 1 uM using KKSRGDYMTMQIG as substrate preincubated for 20 mins followed by [gamma-33P]-ATP addition and measured after 120 mins by radiometric Hot-SpotSM Kinase assay relative to control
Chain of Macrophage-stimulating protein receptor (Homo sapiens) (Q04912 25-304 limits assumed): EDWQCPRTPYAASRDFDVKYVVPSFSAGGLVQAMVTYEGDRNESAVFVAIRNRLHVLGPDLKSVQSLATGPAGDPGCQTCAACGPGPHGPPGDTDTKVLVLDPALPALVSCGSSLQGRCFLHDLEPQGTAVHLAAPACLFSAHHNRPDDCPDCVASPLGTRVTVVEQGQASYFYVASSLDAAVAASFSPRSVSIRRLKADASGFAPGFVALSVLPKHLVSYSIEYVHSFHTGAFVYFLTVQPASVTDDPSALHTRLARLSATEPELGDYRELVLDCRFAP
Chain of Macrophage-stimulating protein receptor (Homo sapiens) (Q04912 310-1400 limits assumed): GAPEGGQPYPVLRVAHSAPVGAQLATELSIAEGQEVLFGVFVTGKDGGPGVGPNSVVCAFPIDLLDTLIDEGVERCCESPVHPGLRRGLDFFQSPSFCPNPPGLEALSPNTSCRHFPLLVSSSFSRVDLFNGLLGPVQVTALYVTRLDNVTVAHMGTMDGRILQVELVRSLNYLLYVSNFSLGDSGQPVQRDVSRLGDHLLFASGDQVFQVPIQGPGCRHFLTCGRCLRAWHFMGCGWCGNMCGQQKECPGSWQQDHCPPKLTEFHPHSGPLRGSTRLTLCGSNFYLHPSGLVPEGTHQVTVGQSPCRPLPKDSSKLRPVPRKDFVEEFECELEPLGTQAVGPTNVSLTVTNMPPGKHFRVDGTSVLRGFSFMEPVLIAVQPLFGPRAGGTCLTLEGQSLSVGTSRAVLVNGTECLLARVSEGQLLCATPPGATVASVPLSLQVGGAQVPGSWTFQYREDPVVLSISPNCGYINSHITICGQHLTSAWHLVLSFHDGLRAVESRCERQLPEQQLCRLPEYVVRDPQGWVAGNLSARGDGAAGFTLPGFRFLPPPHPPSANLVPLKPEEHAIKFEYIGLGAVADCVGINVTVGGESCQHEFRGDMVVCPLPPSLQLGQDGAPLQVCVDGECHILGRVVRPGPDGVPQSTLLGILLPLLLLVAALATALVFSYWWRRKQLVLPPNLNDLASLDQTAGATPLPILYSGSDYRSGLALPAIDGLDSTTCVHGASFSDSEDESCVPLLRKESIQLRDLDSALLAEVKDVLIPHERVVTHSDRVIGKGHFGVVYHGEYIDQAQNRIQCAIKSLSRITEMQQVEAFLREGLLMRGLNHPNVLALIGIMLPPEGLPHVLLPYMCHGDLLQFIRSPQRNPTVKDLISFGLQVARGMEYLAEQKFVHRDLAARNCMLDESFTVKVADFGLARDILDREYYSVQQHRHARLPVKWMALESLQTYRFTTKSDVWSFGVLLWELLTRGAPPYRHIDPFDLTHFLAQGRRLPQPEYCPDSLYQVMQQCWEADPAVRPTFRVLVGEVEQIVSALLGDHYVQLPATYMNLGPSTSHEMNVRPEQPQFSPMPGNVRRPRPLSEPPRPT

[4] = molecular target: Calcium/calmodulin-dependent protein kinase type 1D (Homo sapiens) (UniProt Q8IU85); assay: Inhibition of human CAMK1d assessed as enzyme activity at 1 uM using KKALRRQETVDAL as substrate preincubated for 20 mins followed by [gamma-33P]-ATP addition and measured after 120 mins by radiometric Hot-SpotSM Kinase assay relative to control
Chain of Calcium/calmodulin-dependent protein kinase type 1D (Homo sapiens) (Q8IU85 whole entry, looked up): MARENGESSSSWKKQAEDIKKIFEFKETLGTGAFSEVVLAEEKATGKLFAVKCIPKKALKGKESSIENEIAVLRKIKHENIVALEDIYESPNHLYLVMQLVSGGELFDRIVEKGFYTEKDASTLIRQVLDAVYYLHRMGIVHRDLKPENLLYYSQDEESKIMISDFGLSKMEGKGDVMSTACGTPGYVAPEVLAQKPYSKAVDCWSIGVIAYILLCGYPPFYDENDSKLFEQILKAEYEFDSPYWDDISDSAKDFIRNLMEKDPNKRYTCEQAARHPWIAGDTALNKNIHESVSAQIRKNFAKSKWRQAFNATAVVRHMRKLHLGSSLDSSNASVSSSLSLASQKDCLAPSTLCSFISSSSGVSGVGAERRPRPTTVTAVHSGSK

[5] = molecular target: T1, SNF-related serine/threonine-protein kinase (Homo sapiens) (UniProt Q9NRH2); assay: Inhibition of human SNRK assessed as enzyme activity at 1 uM using myelin basic protein as substrate preincubated for 20 mins followed by [gamma-33P]-ATP addition and measured after 120 mins by radiometric Hot-SpotSM Kinase assay relative to control
T1 sequence (whole entry): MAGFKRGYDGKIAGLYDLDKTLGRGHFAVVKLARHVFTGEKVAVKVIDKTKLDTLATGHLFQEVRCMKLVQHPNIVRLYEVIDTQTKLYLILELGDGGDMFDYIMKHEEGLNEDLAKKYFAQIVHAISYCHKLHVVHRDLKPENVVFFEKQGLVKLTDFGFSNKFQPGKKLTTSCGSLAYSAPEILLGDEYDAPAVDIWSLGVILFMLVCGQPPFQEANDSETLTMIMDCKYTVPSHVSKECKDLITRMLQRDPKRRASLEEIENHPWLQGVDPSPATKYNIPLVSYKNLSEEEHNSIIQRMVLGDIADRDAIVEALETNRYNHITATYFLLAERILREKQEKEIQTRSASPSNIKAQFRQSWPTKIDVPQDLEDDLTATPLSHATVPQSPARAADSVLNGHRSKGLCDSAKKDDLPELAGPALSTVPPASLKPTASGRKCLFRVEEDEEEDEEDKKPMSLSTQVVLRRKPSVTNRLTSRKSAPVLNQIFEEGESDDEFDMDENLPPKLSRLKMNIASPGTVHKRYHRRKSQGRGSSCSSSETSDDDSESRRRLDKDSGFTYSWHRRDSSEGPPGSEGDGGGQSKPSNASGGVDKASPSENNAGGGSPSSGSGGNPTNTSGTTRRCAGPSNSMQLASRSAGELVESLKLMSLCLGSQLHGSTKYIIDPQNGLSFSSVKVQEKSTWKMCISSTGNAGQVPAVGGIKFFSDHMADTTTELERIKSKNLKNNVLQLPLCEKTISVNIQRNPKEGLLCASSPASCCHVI

[6] = molecular target: T2, Tyrosine-protein kinase receptor TYRO3 (Homo sapiens) (UniProt Q06418); assay: Inhibition of human TYRO3 assessed as enzyme activity at 1 uM using poly[Glu:Tyr] (4:1) as substrate preincubated for 20 mins followed by [gamma-33P]-ATP addition and measured after 120 mins by radiometric Hot-SpotSM Kinase assay relative to control
T2 sequence (whole entry): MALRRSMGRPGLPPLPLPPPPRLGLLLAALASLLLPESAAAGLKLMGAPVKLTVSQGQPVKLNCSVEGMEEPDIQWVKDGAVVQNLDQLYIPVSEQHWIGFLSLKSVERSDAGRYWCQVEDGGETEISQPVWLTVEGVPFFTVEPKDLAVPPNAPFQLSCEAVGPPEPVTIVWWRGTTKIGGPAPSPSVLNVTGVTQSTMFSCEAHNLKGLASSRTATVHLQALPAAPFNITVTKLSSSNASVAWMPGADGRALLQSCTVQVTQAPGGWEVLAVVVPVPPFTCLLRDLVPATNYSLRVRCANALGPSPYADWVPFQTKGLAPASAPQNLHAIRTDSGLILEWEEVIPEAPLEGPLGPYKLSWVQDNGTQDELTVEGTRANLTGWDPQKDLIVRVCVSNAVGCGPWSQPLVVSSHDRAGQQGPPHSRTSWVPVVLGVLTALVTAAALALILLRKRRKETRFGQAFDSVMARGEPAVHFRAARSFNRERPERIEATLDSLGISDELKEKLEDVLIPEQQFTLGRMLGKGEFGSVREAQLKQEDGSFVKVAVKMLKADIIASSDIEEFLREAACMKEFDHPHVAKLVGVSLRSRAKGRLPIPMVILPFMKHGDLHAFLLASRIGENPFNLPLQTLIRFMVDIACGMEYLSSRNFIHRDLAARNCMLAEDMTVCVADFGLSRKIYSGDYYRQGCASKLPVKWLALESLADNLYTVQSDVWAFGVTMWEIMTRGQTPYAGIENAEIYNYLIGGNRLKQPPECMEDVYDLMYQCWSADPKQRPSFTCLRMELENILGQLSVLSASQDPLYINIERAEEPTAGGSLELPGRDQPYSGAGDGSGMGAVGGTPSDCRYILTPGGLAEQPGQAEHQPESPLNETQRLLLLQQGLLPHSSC

[7] = molecular target: T3, Rhodopsin kinase GRK1 (Homo sapiens) (UniProt Q15835); assay: Inhibition of human GRK1 assessed as enzyme activity at 1 uM using casein as substrate preincubated for 20 mins followed by [gamma-33P]-ATP addition and measured after 120 mins by radiometric Hot-SpotSM Kinase assay relative to control
T3 sequence (whole entry): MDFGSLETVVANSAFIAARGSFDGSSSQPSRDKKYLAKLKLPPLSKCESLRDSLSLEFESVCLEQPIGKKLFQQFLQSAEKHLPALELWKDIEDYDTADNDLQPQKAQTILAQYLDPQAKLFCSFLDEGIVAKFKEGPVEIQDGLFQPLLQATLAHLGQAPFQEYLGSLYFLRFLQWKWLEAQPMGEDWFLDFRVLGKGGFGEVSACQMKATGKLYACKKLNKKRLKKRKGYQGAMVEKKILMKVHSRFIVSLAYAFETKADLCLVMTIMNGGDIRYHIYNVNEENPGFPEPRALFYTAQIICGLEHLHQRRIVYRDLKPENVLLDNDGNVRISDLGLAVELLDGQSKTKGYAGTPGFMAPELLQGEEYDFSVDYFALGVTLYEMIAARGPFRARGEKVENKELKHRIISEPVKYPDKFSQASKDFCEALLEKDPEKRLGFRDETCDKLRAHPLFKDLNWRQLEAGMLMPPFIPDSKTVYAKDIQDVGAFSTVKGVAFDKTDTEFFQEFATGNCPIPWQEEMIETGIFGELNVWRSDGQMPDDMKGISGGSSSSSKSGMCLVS

Row | Structure (SMILES) | Activity [1] | Activity [2] | Activity [3] | Activity [4] | Activity [5] | Activity [6] | Activity [7]
1 | C[C@H](Nc1ncnc2nc[nH]c12)c1cc2cccc(Cl)c2c(=O)n1-c1ccccc1 | 110% | 111% | 103% | 96% | 96.6% | 98.5% | 102%
2 | CC[C@H](Nc1ncnc2[nH]cnc12)c1nc2cccc(F)c2c(=O)n1-c1ccccc1 | 108% | 99.7% | 108% | 98.8% | 102% | 98.9% | 104%
3 | CC(C)Oc1ccc(-c2nn([C@@H](C)c3oc4ccc(F)cc4c(=O)c3-c3cccc(F)c3)c3ncnc(N)c23)cc1F [UMBRALISIB] | 104% | 107% | 104% | 99.1% | 102% | 96.8% | 98.7%
